Assay results from US8138196B2, “Antifungal wallboards and building materials and methods for the production thereof” (Syngenta Crop Protection, Inc., priority 2005, dated 2012).

How the values were obtained:
[1] = system: Aspergillus versicolor (DSM 1943); test: Example 4 liquid culture assay on 24 and 48 well plates, 3 way mixtures; assay type: cell-based; details: test 006-2005, A. versicolor
Description: For test 006-2005: Alternaria tenuissima (DSM 63360), Penicillium chrysogenum (DSM 895), Cladosporium cladosporoides (DSM62121), Aspergillus niger (DSM 63263), Aspergillus versicolor (DSM 1943) and Aureobasidium pullulans (ATCC 15233) were separately cultivated on PDA media to […] sporulation. Spore suspensions were produced for each fungus. Spore concentrations of approx. 100,000 spores/ml were used.
Test method used: liquid culture assay on 24 and 48 well plates respectively.
For testing of the 3 way mixtures each of the formulated fungicide (100 ul) was filled into the 24 and 48 well plates respectively. Afterwards 700 ul of 0.3% AE media was added to the plate. The spore suspension of the specific fungi was added to this media in advance containing approx. 100,000 spores/ml. For testing the solo compounds the equivalent of distilled water was added instead of the formulated fungicide volume of the mixing partners. The plates were then sealed and incubated at 24° C.
Dependent on the growth properties of each organisms, the evaluation was done after 3 to 6 days, when the surface of the check well was covered with mycelium. The evaluation was performed by assessing the growth of the fungi related to the check growth. The results are expressed as % activity relative to the check (values of 0-100% growth). Afterwards the results were converted in % growth inhibition.
For the mixtures of different fungicides the synergism was calculated based on the Colby equation, which is described above.

Coniophora puteana = test: radial mycelial growth on fungicide amended agar; assay type: cell-based; details: estimated from graph of % activity (radial mycelial growth relative to agar without fungicide) against concentration
Method: Stem cultures of Coniophora puteana were produced by propagating the fungus on a growth medium comprising yeast extract (10 g), glycerol (20 ml), magnesium sulphate (0.5 g), sodium nitrate (6.0 g), potassium chloride (0.5 g), potassium dihydrogen orthophosphate (1.5 g), agar (20 g) in distilled water (980 ml).
Fungicides were added at levels of 5000, 100, 10, 1, 0.1 and 0.01 mg fungicide/litre of growth medium (described above) to give […] different growth medium compositions for each fungicide. Mycelial plugs were taken from the stem cultures and transferred upside down onto petri dishes containing the fungicide amended agar.
The radial mycelial growth of the fungus was measured individually on all test petri dishes. The results are expressed as % activity relative to the radial growth on agar without fungicide.
For each fungicide, a graph was drawn of percentage activity against concentration of fungicide in the growth medium. From this graph, the concentrations of fungicide required to achieve 80% activity was estimated. These figures are given in the results table.

CO/C=C(/C(=O)OC)c1ccccc1Oc1cc(Oc2ccccc2C#N)ncn1 [Azoxystrobin]
0.38 mg/L: Concentration required for 80% Activity (Coniophora puteana)
30%: inh % (AZO alone) ([1]; AZO 0.2 mg ai/l) | inh % (AZO alone) ([1]; AZO 0.8 mg ai/l) | inh % (AZO alone) ([1]; AZO 1.6 mg ai/l) | inh % (AZO alone) ([1]; AZO 3.12 mg ai/l) | inh % (AZO alone) ([1]; AZO 12.5 mg ai/l) | inh % (AZO alone) ([1]; AZO 50 mg ai/l) | inh % (AZO alone) ([1]; AZO 100 mg ai/l)
10%: inh % (AZO alone) ([1]; AZO 0.05 mg ai/l)
